Molecular target: human APJ receptor (Homo sapiens (Human), UniProt P35414)
Experiment: Intracellular cAMP accumulation assay (APJ hcAMP, HTRF)
Format: cell-based
Details: human APJ, cAMP accumulation; read-out: Human APJ cAMP EC50 Potency range
How it was run: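 HEK293 cells stably expressing human APJ, 5,000 per well, incubated 30 min at rt with compound, […] and 2 μM forskolin. cAMP measured by HTRF against a cAMP standard curve as inhibition of forskolin-driven production. EC50 from variable-slope sigmoidal fit.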

human APJ receptor, sequence (P35414 whole entry): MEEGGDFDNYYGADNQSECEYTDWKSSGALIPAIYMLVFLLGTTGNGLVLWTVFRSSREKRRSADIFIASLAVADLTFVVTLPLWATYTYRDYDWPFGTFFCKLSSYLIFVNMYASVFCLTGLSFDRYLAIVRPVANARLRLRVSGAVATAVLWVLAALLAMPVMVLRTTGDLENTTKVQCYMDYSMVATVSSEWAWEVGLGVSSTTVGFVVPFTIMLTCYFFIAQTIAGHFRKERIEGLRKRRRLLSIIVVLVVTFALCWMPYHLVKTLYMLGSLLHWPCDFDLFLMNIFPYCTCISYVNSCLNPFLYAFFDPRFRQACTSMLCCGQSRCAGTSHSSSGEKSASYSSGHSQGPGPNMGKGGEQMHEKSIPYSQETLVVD

Compound	EC50
CCOCc1nc(=O)c(S(=O)(=O)c2ccc(-c3ccc(F)nc3)cc2)c(O)n1[C@@H](COC)c1ccccc1 [Example 317, 2-(ethoxymethyl)-5-[4 (6-fluoropyridin-3-yl)benzenesulfonyl]-6-hydroxy-1-[(1R)-2-methoxy-1-phenylethyl]-1,4-dihydropyrimidin-4-one]	10 to 100 nM
COC[C@@H](c1ccccc1)n1c(COC(C)C)nc(=O)c(S(=O)(=O)c2ccc(-c3cccnc3C)cc2)c1O [Example 328]	0.01 to 10 nM
COC[C@@H](c1ccccc1)n1c(COC(C)C)nc(=O)c(S(=O)(=O)c2ccc(-c3ccncc3C)cc2)c1O [Example 329, 6-hydroxy-1-[(1R)-2-methoxy-1-phenylethyl]-5-[4-(3-methylpyridin-4-yl)benzenesulfonyl]-2-[(propan-2-yloxy)methyl]-1,4-dihydropyrimidin-4-one]	0.01 to 10 nM
Cc1ncccc1-c1ccc(S(=O)(=O)c2c(O)n([C@H]3CCc4ccccc43)c(COC(C)C)nc2=O)cc1 [Example 330, 1-[(1S)-2,3-dihydro-1H-inden-1-yl]-6-hydroxy-5-[4-(2-methylpyridin-3-yl)benzenesulfonyl]-2-[(propan-2-yloxy)methyl]-1,4-dihydropyrimidin-4-one]	0.01 to 10 nM
Cc1c(-c2ccc(S(=O)(=O)c3c(O)n([C@H]4CCc5ccccc54)c(COC(C)C)nc3=O)cc2)ccnc1F [Example 331, 1-[(1S)-2,3-dihydro-1H-inden-1-yl]-5-[4-(2-fluoro-3-methylpyridin-4-yl)benzenesulfonyl]-6-hydroxy-2-[(propan-2-yloxy)methyl]-1,4-dihydropyrimidin-4-one]	0.01 to 10 nM
Cc1cnccc1-c1ccc(S(=O)(=O)c2c(O)n([C@H]3CCc4ccccc43)c(COC(C)C)nc2=O)cc1 [Example 332, 1-[(1S)-2,3-dihydro-1H-inden-1-yl]-6-hydroxy-5-[4-(3-methylpyridin-4-yl)benzenesulfonyl]-2-[(propan-2-yloxy)methyl]-1,4-dihydropyrimidin-4-one]	0.01 to 10 nM
COC[C@@H](c1ccccc1)n1c(COC(C)C)nc(=O)c(S(=O)(=O)c2ccc(-c3ccnc(F)c3C)c(F)c2)c1O [Example 333, 5-[3-fluoro-4-(2-fluoro-3-methylpyridin-4-yl)benzenesulfonyl]-6-hydroxy-1-[(1R)-2-methoxy-1-phenylethyl]-2-[(propan-2-yloxy)methyl]-1,4-dihydropyrimidin-4-one]	0.01 to 10 nM
CCOCc1nc(=O)c(S(=O)(=O)c2ccc(-c3cncc(F)c3)cc2)c(O)n1[C@@H](CC)c1ccccc1 [Example 334, 2-(ethoxymethyl)-5-[4-(5-fluoropyridin-3-yl)benzenesulfonyl]-6-hydroxy-1-[(1S)-1-phenylpropyl]-1,4-dihydropyrimidin-4-one]	0.01 to 10 nM
COC[C@@H](c1ccccc1)n1c(COC(C)C)nc(=O)c(S(=O)(=O)c2ccc(-c3ccc(F)nc3)c(F)c2)c1O [Example 335, 5-[3-fluoro-4-(6-fluoropyridin-3-yl)benzenesulfonyl]-6-hydroxy-1-[(1R)-2-methoxy-1-phenylethyl]-2-[(propan-2-yloxy)methyl]-1,4-dihydropyrimidin-4-one]	0.01 to 10 nM
COC[C@@H](c1ccccc1)n1c(COC(C)C)nc(=O)c(S(=O)(=O)c2ccc(-c3ccncc3C)c(F)c2)c1O [Example 336, 5-[3-fluoro-4-(3-methylpyridin-4-yl)benzenesulfonyl]-6-hydroxy-1-[(1R)-2-methoxy-1-phenylethyl]-2-[(propan-2-yloxy)methyl]-1,4-dihydropyrimidin-4-one]	0.01 to 10 nM

Continued, values first:

EC50	Compound
0.01 to 10 nM	CCOCc1nc(=O)c(S(=O)(=O)c2ccc(-c3ccc(F)nc3C)cc2)c(O)n1[C@@H](COC)c1ccccc1 [Example 318, 2-(ethoxymethyl)-5-[4-(6-fluoro-2-methylpyridin-3-yl)benzenesulfonyl]-6-hydroxy-1-[(1R)-2-methoxy-1-phenylethyl]-1,4-dihydropyrimidin-4-one]
0.01 to 10 nM	CCOCc1nc(=O)c(S(=O)(=O)c2ccc(-c3cccnc3C)cc2)c(O)n1[C@H]1CCc2ccccc21 [Example 319, 1-[(1S)-2,3-dihydro-1H-inden-1-yl]-2-(ethoxymethyl)-6-hydroxy-5-[4-(2-methylpyridin-3-yl)benzenesulfonyl]-1,4-dihydropyrimidin-4-one]
0.01 to 10 nM	Cc1nc(F)ccc1-c1ccc(S(=O)(=O)c2c(O)n([C@H]3CCc4ccccc43)c(COC(C)C)nc2=O)cc1 [Example 320, 1-[(1S)-2,3-dihydro-1H-inden-1-yl]-5-[4-(6-fluoro-2-methylpyridin-3-yl)benzenesulfonyl]-6-hydroxy-2-[(propan-2-yloxy)methyl]-1,4-dihydropyrimidin-4-one]
0.01 to 10 nM	COC[C@@H](c1ccccc1)n1c(COC(C)C)nc(=O)c(S(=O)(=O)c2ccc(-c3ccc(F)nc3C)cc2)c1O [Example 321, 5-[4-(6-fluoro-2-methylpyridin-3-yl)benzenesulfonyl]-6-hydroxy-1-[(1R)-2-methoxy-1-phenylethyl]-2-[(propan-2-yloxy)methyl]-1,4-dihydropyrimidin-4-one]
0.01 to 10 nM	CCOCc1nc(=O)c(S(=O)(=O)c2ccc(-c3cncc(F)c3)cc2)c(O)n1[C@H]1CCc2ccccc21 [Example 322, 1-[(1S)-2,3-dihydro-1H-inden-1-yl]-2-(ethoxymethyl)-5-[4-(5-fluoropyridin-3-yl)benzenesulfonyl]-6-hydroxy-1,4-dihydropyrimidin-4-one]
0.01 to 10 nM	CCOCc1nc(=O)c(S(=O)(=O)c2ccc(-c3ccncc3C)cc2)c(O)n1[C@H]1CCc2ccccc21 [Example 323, 1-[(1S)-2,3-dihydro-1H-inden-1-yl]-2-(ethoxymethyl)-6-hydroxy-5-[4-(3-methylpyridin-4-yl)benzenesulfonyl]-1,4-dihydropyrimidin-4-one]
0.01 to 10 nM	CCOCc1nc(=O)c(S(=O)(=O)c2ccc(-c3ccnc(F)c3C)cc2)c(O)n1[C@H]1CCc2ccccc21 [Example 324, 1-[(1S)-2,3-dihydro-1H-inden-1-yl]-2-(ethoxymethyl)-5-[4-(2-fluoro-3-methylpyridin-4-yl)benzenesulfonyl]-6-hydroxy-1,4-dihydropyrimidin-4-one]
0.01 to 10 nM	CCOCc1nc(=O)c(S(=O)(=O)c2ccc(-c3ccc(F)nc3)cc2)c(O)n1[C@H]1CCc2ccccc21 [Example 325, 1-[(1S)-2,3-dihydro-1H-inden-1-yl]-2-(ethoxymethyl)-5-[4-(6-fluoropyridin-3-yl)benzenesulfonyl]-6-hydroxy-1,4-dihydropyrimidin-4-one]
0.01 to 10 nM	CCOCc1nc(=O)c(S(=O)(=O)c2ccc(-c3ccc(F)nc3C)cc2)c(O)n1[C@H]1CCc2ccccc21 [Example 326, 1-[(1S)-2,3-dihydro-1H-inden-1-yl]-2-(ethoxymethyl)-5-[4-(6-fluoro-2-methylpyridin-3-yl)benzenesulfonyl]-6-hydroxy-1,4-dihydropyrimidin-4-one]
0.01 to 10 nM	COC[C@@H](c1ccccc1)n1c(COC(C)C)nc(=O)c(S(=O)(=O)c2ccc(-c3ccnc(F)c3C)cc2)c1O [Example 327, 5-[4-(2-fluoro-3-methylpyridin-4-yl)benzenesulfonyl]-6-hydroxy-1-[(1R)-2-methoxy-1-phenylethyl]-2-[(propan-2-yloxy)methyl]-1,4-dihydropyrimidin-4-one]

Reference: patent US10508104B2, “6-hydroxy-5-(phenyl/heteroarylsulfonyl)pyrimidin-4(1H)-one as APJ agonists” (Bristol-Myers Squibb Company, priority 2016, dated 2019)
